SMILES strings stand for the structures.

Results on two compounds are retold here after patent US8951760B2, “Method for producing an L-amino acid” (priority 2010, dated 2015).

This experiment concerns L-lysine-producing bacterium, WC196 LC/pCABD2 strain. Kind of experiment: L-lysine production culture in small fermentation tank with addition of thiourea or urea to the medium. The class given is cell-based, Escherichia coli. On the procedure:
The glycerol stock of the L-lysine-producing bacterium, WC196 LC/pCABD2 strain, was inoculated in an amount of one loop to the LB agar medium (1% of tryptone, 0.5% of yeast extract, 0.5% of sodium chloride, 1.5% of agarose) containing 20 mg/L of streptomycin, and cultured at 37° C. for 24 hours as static culture.
The cells grown in the aforementioned preculture were scraped off from the medium, suspended in a 0.85% NaCl aqueous solution, and inoculated into 300 mL of MS glucose liquid fermentation medium or MS fatty acid liquid fermentation medium having the following compositions and contained in a small fermentation tank having a total volume of 1 L at a turbidity of 0.04 measured at a wavelength of 600 nm to start the culture. With the MS glucose liquid fermentation medium, the culture was performed at a culture temperature of 37° C. and a stirring rate of 300 rpm for 16 hours with the addition of 20 mg/L of streptomycin and aeration of compressed air sterilized with a sterilization filter at 1 vvm. Furthermore, pH was maintained at 6.7 with ammonia gas. With the MS fatty acid liquid fermentation medium, the culture was performed at a culture temperature of 37° C. and a stirring rate of 700 rpm for 42 hours with addition of 20 mg/L of streptomycin and aeration of compressed air sterilized with a sterilization filter at 1 vvm. Furthermore, pH was maintained at 6.7 with ammonia gas.
The culture was performed with adding 1 mM or 5 mM thiourea as an antioxidant at the time of the start of the culture. As controls, the culture was performed under a condition in which thiourea was not added (referred to as a thiourea-free condition), and a condition in which urea was added at the same concentrations as thiourea (referred to as a urea addition condition).
During the culture, an appropriate volume of each liquid medium was sampled, and the amount of L-lysine in the culture supernatant was measured with a Biotech Analyzer AS310 (Sakura SI). Complete consumption of the oleate added to the medium was confirmed by using a gas chromatograph GC-2014 (Shimadzu). Complete consumption of the glucose added to the medium was separately confirmed by using a Biotech Analyzer AS310. Furthermore, a Tween 80 solution was added at a final concentration of 1.0% (v/v) immediately after the end of the culture, the resultant was appropriately diluted, and turbidity was measured at a wavelength of 600 nm to measure cell amount at the time of the end of the culture.

[1] abbreviates: carbon source fatty acid (sodium oleate), additive 1 mM.
Setting [2] is: carbon source fatty acid (sodium oleate), additive 5 mM.
[3] abbreviates: carbon source glucose, additive 1 mM.
The mark [4] stands for this setting: carbon source glucose, additive 5 mM.

As to `NC(N)=S` [Thiourea, thiourea], the “Culture time required for consumption of carbon source” value (“Culture time required for consumption” for short) reads like this: under setting [1], 33.0 h; under setting [2], 33.0 h; under setting [3], 16.0 h; under setting [4], 16.0 h. Besides, the “L-Lysine accumulation at the end of culture” value is, setting by setting: under setting [1], 5.2 g/L; under setting [2], 5.2 g/L; under setting [3], 4.7 g/L; under setting [4], 4.7 g/L. Besides, the “OD600 at the end of culture” value worked out at 7.3 under setting [1], 7.5 under setting [2], 5.3 under setting [3] and 5.2 under setting [4].
`NC(N)=O` [Urea, urea]: the “Culture time required for consumption” value under setting [1] was 41.5 h, the “Culture time required for consumption” value under setting [2] was 41.5 h, the “Culture time required for consumption” value under setting [3] turned out to be 16.0 h and the “Culture time required for consumption” value under setting [4] was determined as 16.0 h. Moreover, the “L-Lysine accumulation at the end of culture” value came to 4.8 g/L under setting [1], 4.8 g/L under setting [2], 4.6 g/L under setting [3] and 4.6 g/L under setting [4]. Also, the “OD600 at the end of culture” value reads like this: under setting [1], 6.8; under setting [2], 6.9; under setting [3], 5.2; under setting [4], 5.2.
